{"source": "paper PMC7933434", "about": "“Entropy-driven binding of gut bacterial β-glucuronidase inhibitors ameliorates irinotecan-induced toxicity” (Communications Biology, 2021)", "key": {"[1]": {"molecular_target": "EcGUS (Escherichia coli, UniProt P05804)", "sequence (P05804 whole entry)": "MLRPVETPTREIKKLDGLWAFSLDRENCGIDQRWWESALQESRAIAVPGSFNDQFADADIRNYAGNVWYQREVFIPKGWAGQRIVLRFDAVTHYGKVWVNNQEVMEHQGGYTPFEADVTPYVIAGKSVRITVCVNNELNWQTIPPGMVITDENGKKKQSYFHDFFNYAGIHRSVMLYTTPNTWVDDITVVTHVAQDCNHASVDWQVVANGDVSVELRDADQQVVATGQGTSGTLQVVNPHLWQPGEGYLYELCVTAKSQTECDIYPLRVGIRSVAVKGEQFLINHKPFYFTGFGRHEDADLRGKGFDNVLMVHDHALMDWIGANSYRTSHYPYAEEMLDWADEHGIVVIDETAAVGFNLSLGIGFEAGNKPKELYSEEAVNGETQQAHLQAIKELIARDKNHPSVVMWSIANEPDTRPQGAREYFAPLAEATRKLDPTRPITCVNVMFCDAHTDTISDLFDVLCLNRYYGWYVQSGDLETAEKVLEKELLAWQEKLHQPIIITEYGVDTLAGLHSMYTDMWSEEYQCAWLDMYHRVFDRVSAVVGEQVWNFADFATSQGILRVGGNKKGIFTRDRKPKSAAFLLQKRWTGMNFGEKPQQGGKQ", "experiment": "Isothermal titration calorimetry, EcGUS", "assay_type": "binding", "details": "EcGUS, 298 K"}, "[2]": {"molecular_target": "BdGUS (Bifidobacterium dentium GUS) (Bifidobacterium dentium, UniProt D2Q7B1)", "sequence (D2Q7B1 1-668)": "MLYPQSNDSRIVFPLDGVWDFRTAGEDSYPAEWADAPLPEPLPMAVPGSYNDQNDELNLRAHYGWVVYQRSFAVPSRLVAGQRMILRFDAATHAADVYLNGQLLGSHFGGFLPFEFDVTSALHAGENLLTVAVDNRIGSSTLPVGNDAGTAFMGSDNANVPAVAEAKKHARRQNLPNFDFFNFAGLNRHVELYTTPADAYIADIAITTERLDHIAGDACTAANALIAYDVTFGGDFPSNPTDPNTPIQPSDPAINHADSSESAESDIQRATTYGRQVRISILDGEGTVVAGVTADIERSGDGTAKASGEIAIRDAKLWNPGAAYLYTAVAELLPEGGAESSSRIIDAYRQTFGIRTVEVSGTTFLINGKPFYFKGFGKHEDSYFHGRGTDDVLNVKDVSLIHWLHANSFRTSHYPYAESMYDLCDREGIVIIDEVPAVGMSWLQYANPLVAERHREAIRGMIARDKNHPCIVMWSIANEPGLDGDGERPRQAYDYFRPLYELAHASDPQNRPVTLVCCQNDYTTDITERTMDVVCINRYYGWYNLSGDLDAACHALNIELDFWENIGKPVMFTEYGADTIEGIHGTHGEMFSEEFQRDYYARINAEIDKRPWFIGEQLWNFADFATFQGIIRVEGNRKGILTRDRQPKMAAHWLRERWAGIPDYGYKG", "experiment": "biochemical", "design": "GUS activity (hydrolysis rate of MUG) / 1/v: unit not given here"}, "[3]": {"molecular_target": "BdGUS (Bifidobacterium dentium, UniProt D2Q7B1)", "sequence (D2Q7B1 entry or part of it)": "as the sequence (D2Q7B1 1-668) above", "experiment": "biochemical", "assay_type": "binding", "details": "BdGUS; Tris buffer (250 mM NaCl, 20 mM Tris, pH 8.0); 298 K"}, "[4]": {"molecular_target": "T1, HsGUS (human GUS) (Homo sapiens, UniProt P08236)", "T1 construct": "HsGUS was prepared as described[37]; made in house", "T1 sequence (P08236 23-651)": "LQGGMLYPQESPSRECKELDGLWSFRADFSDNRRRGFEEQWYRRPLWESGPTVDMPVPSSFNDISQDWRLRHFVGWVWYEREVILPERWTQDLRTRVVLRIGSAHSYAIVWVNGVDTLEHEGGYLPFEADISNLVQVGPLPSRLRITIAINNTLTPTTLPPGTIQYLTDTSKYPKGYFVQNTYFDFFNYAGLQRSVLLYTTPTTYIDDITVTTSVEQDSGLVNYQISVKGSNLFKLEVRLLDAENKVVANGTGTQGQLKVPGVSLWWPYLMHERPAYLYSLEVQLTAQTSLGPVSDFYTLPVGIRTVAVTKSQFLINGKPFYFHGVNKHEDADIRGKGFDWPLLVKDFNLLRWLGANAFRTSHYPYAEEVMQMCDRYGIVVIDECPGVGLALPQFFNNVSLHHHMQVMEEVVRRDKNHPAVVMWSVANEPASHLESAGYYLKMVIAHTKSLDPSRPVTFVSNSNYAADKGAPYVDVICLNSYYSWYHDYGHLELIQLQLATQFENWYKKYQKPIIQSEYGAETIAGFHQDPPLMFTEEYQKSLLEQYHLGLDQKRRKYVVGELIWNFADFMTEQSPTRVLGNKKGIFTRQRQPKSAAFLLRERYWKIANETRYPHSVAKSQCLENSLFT", "experiment": "GUS inhibition assay, hydrolysis of 4-methylumbelliferyl-β-glucuronide, HsGUS", "assay_type": "biochemical", "design": "GUS activity (hydrolysis rate of MUG): unit not given here", "details": "for Ki: HsGUS; for GUS activity (hydrolysis rate of MUG): [Inhibitor 1] =6.25 nM"}, "[5]": {"details": "Tris buffer (250 mM NaCl, 20 mM Tris, pH 8.0)"}, "[6]": {"details": "phosphate buffer (250 mM NaCl, 20 mM KH2PO4, 100 mM Na2HPO4, pH 8.0)"}, "[7]": {"details": "[Inhibitor 1] = 6.25 nM, [MUG] 0.375 mM"}, "[8]": {"details": "[Inhibitor 1] = 6.25 nM, [MUG] 0.75 mM"}, "[9]": {"details": "[Inhibitor 1] = 6.25 nM, [MUG] 1.5 mM"}, "[10]": {"details": "[Inhibitor 1] = 6.25 nM, [MUG] 3 mM"}, "[11]": {"details": "[Inhibitor 1] = 12.5 nM, [MUG] 0.375 mM"}, "[12]": {"details": "[Inhibitor 1] = 12.5 nM, [MUG] 0.75 mM"}, "[13]": {"details": "[Inhibitor 1] = 12.5 nM, [MUG] 1.5 mM"}, "[14]": {"details": "[Inhibitor 1] = 12.5 nM, [MUG] 3 mM"}, "[15]": {"details": "[Inhibitor 1] = 25 nM, [MUG] 0.375 mM"}, "[16]": {"details": "[Inhibitor 1] = 25 nM, [MUG] 0.75 mM"}, "[17]": {"details": "[Inhibitor 1] = 25 nM, [MUG] 1.5 mM"}, "[18]": {"details": "[Inhibitor 1] = 25 nM, [MUG] 3 mM"}, "[19]": {"details": "[Inhibitor1] = 50 nM, [MUG] 0.375 mM"}, "[20]": {"details": "[Inhibitor1] = 50 nM, [MUG] 0.75 mM"}, "[21]": {"details": "[Inhibitor1] = 50 nM, [MUG] 1.5 mM"}, "[22]": {"details": "[Inhibitor1] = 50 nM, [MUG] 3 mM"}}, "note": "Values joined by “and” are separate entries in the source; they are usually repeats but may differ in a detail not shown here. Equal values may be shown once."}
{"molecule": "O=C(O)[C@H]1CNC[C@@H](O)[C@@H]1O", "note": "[Inhibitor 1, Uronic isofagomine]", "values": [{"measurement": "Kd", "setting": "[1]; [5]", "result": "20 ± 2", "unit": "nM"}, {"measurement": "ΔG", "setting": "[1]; [5]", "result": "–10.63 ± 0.075 kcal/mol"}, {"measurement": "—TΔS", "setting": "[1]; [5]", "result": "–1.51 ± 0.20 kcal/mol"}, {"measurement": "Kd", "setting": "[1]; [6]", "result": "60 ± 1", "unit": "nM"}, {"measurement": "ΔG", "setting": "[1]; [6]", "result": "–9.89 ± 0.01 kcal/mol"}, {"measurement": "ΔH", "setting": "[1]; [6]", "result": "–9.48 ± 0.29 kcal/mol"}, {"measurement": "—TΔS", "setting": "[1]; [6]", "result": "–0.41 ± 0.30 kcal/mol"}, {"measurement": "Ki", "setting": "[2]; BdGUS", "result": 7.4, "unit": "nM"}, {"measurement": "1/v", "setting": "[2]; [7]", "result": "0.8126 and 0.846 and 0.7526"}, {"measurement": "GUS activity (hydrolysis rate of MUG)", "setting": "[2]; [7]", "result": "0.2748 and 0.264 and 0.2967"}, {"measurement": "1/v", "setting": "[2]; [8]", "result": "0.5186 and 0.5024 and 0.468"}, {"measurement": "GUS activity (hydrolysis rate of MUG)", "setting": "[2]; [8]", "result": "0.4306 and 0.4444 and 0.4771"}, {"measurement": "1/v", "setting": "[2]; [9]", "result": "0.3591 and 0.3484 and 0.3239"}, {"measurement": "GUS activity (hydrolysis rate of MUG)", "setting": "[2]; [9]", "result": "0.6217 and 0.6409 and 0.6893"}, {"measurement": "1/v", "setting": "[2]; [10]", "result": "0.2793 and 0.2899 and 0.2702"}, {"measurement": "GUS activity (hydrolysis rate of MUG)", "setting": "[2]; [10]", "result": "0.7996 and 0.7703 and 0.8263"}, {"measurement": "1/v", "setting": "[2]; [11]", "result": "1.155 and 1.089 and 1.043"}, {"measurement": "GUS activity (hydrolysis rate of MUG)", "setting": "[2]; [11]", "result": "0.1934 and 0.2051 and 0.2141"}, {"measurement": "1/v", "setting": "[2]; [12]", "result": "0.6535 and 0.6591 and 0.6116"}, {"measurement": "GUS activity (hydrolysis rate of MUG)", "setting": "[2]; [12]", "result": "0.3417 and 0.3388 and 0.3651"}, {"measurement": "1/v", "setting": "[2]; [13]", "result": "0.4306 and 0.4268 and 0.4023"}, {"measurement": "GUS activity (hydrolysis rate of MUG)", "setting": "[2]; [13]", "result": "0.5186 and 0.5232 and 0.555"}, {"measurement": "1/v", "setting": "[2]; [14]", "result": "0.3354 and 0.3372 and 0.306"}, {"measurement": "GUS activity (hydrolysis rate of MUG)", "setting": "[2]; [14]", "result": "0.6657 and 0.6621 and 0.7298"}, {"measurement": "1/v", "setting": "[2]; [15]", "result": "1.814 and 1.753 and 1.625"}, {"measurement": "GUS activity (hydrolysis rate of MUG)", "setting": "[2]; [15]", "result": "0.1231 and 0.1273 and 0.1374"}, {"measurement": "1/v", "setting": "[2]; [16]", "result": "0.8901 and 1.007 and 0.9854"}, {"measurement": "GUS activity (hydrolysis rate of MUG)", "setting": "[2]; [16]", "result": "0.2509 and 0.2218 and 0.2266"}, {"measurement": "1/v", "setting": "[2]; [17]", "result": "0.5908 and 0.5953 and 0.5748"}, {"measurement": "GUS activity (hydrolysis rate of MUG)", "setting": "[2]; [17]", "result": "0.3779 and 0.3751 and 0.3885"}, {"measurement": "1/v", "setting": "[2]; [18]", "result": "0.423 and 0.431 and 0.4024"}, {"measurement": "GUS activity (hydrolysis rate of MUG)", "setting": "[2]; [18]", "result": "0.5279 and 0.5181 and 0.5549"}, {"measurement": "1/v", "setting": "[2]; [19]", "result": "3.2999 and 3.135 and 3.11"}, {"measurement": "GUS activity (hydrolysis rate of MUG)", "setting": "[2]; [19]", "result": "0.06767 and 0.07122 and 0.07181"}, {"measurement": "1/v", "setting": "[2]; [20]", "result": "1.905 and 1.744 and 1.761"}, {"measurement": "GUS activity (hydrolysis rate of MUG)", "setting": "[2]; [20]", "result": "0.1172 and 0.128 and 0.1268"}, {"measurement": "1/v", "setting": "[2]; [21]", "result": "0.9882 and 1.034 and 0.9748"}, {"measurement": "GUS activity (hydrolysis rate of MUG)", "setting": "[2]; [21]", "result": "0.226 and 0.216 and 0.2291"}, {"measurement": "1/v", "setting": "[2]; [22]", "result": "0.6379 and 0.6438 and 0.6305"}, {"measurement": "GUS activity (hydrolysis rate of MUG)", "setting": "[2]; [22]", "result": "0.35 and 0.3468 and 0.3542"}, {"measurement": "Kd", "setting": "[3]", "result": "300 ± 60", "unit": "nM"}, {"measurement": "ΔG", "setting": "[3]", "result": "–8.91 ± 0.13 kcal/mol"}, {"measurement": "ΔH", "setting": "[3]", "result": "–10.47 kcal/mol"}, {"measurement": "—TΔS", "setting": "[3]", "result": "1.56 ± 0.37", "unit": "kcal/mol"}, {"measurement": "Ki", "setting": "[4]", "result": 180, "unit": "nM"}, {"measurement": "Ki", "setting": "[4]; 50 mM sodium acetate pH 4.5, 37 °C", "result": "180 ± 2", "unit": "nM"}, {"measurement": "GUS activity (hydrolysis rate of MUG)", "setting": "[4]; [MUG] 0.1 mM", "result": "1052.77 and 919.367"}, {"measurement": "GUS activity (hydrolysis rate of MUG)", "setting": "[4]; [MUG] 0.2 mM", "result": "1682.62 and 1656.5"}]}
